Experimental data: the NIST ThermoML archive (doi:10.1021/je050358g)

Conditions: Liquid, vibrating tube

CCCCCCCCCCCCCC[P+](CCCCCC)(CCCCCC)CCCCCC.[Cl-] [trihexyl(tetradecyl)phosphonium chloride]
mass density [kg/m3]
Conditions | 298.13 K | 303.15 K | 308.13 K | 313.15 K | 318.15 K | 323.14 K | 328.16 K | 333.14 K
190 kPa | 891.62 | 888.51 | 885.65 | 882.72 | 879.82 | 876.69 | 873.88 | 870.88
1000 kPa | 892.02 | 888.97 | 886.07 | 883.19 | 880.27 | 877.16 | 874.33 | 871.36
3000 kPa | 893.07 | 890.03 | 887.18 | 884.3 | 881.41 | 878.29 | 875.5 | 872.51
5010 kPa | 894.09 | 891.06 | 888.26 | 885.4 | 882.52 | 879.43 | 876.64 | 873.64
7500 kPa | 895.36 | 892.35 | 889.57 | 886.75 | 883.89 | 880.82 | 878.05 | 875.05
10000 kPa | 896.59 | 893.6 | 890.87 | 888.06 | 885.24 | 882.18 | 879.42 | 876.42
15010 kPa | 899.02 | 896.1 | 893.38 | 890.63 | 887.86 | 884.84 | 882.11 | 879.11
19990 kPa | 901.33 | 898.48 | 895.82 | 893.11 | 890.37 | 887.38 | 884.69 | 881.72
25010 kPa | 903.6 | 900.78 | 898.17 | 895.49 | 892.81 | 889.86 | 887.2 | 884.25
29990 kPa | 905.77 | 903.01 | 900.42 | 897.81 | 895.15 | 892.24 | 889.62 | 886.71
35010 kPa | 907.93 | 905.17 | 902.63 | 900.04 | 897.43 | 894.57 | 891.98 | 889.11
39990 kPa | 910.01 | 907.28 | 904.75 | 902.21 | 899.63 | 896.82 | 894.24 | 891.46
45010 kPa | 912.05 | 909.34 | 906.82 | 904.32 | 901.78 | 899.01 | 896.49 | 893.73
50000 kPa | 914.03 | 911.34 | 908.83 | 906.35 | 903.87 | 901.13 | 898.62 | 895.96
55000 kPa | 915.93 | 913.27 | 910.78 | 908.34 | 905.9 | 903.19 | 900.74 | 898.14
59990 kPa | 917.83 | 915.17 | 912.67 | – | 907.87 | 905.21 | 902.79 | 900.26
65000 kPa | 919.63 | 916.99 | 914.51 | – | 909.78 | 907.16 | 904.8 | 902.35

CCCCCCCCCCCCCC[P+](CCCCCC)(CCCCCC)CCCCCC.O=S(=O)([N-]S(=O)(=O)C(F)(F)F)C(F)(F)F
mass density [kg/m3]
Conditions | 298.15 K | 303.25 K | 308.15 K | 318.27 K | 323.33 K | 328.39 K | 333.43 K
210 kPa | 1066.62 | 1062.61 | 1058.87 | 1051.54 | 1047.84 | 1044.49 | 1041.15
540 kPa | 1066.84 | 1062.85 | 1059.07 | 1051.79 | 1048.07 | 1044.74 | 1041.43
1000 kPa | 1067.13 | 1063.14 | 1059.37 | 1052.1 | 1048.38 | 1045.08 | 1041.76
3000 kPa | 1068.44 | 1064.47 | 1060.76 | 1053.49 | 1049.81 | 1046.53 | 1043.19
5010 kPa | 1069.7 | 1065.77 | 1062.11 | 1054.88 | 1051.24 | 1047.96 | 1044.61
7500 kPa | 1071.3 | 1067.39 | 1063.74 | 1056.54 | 1052.94 | 1049.68 | 1046.4
9990 kPa | 1072.85 | 1068.97 | 1065.36 | 1058.2 | 1054.64 | 1051.4 | 1048.13
15010 kPa | 1075.88 | 1072.09 | 1068.53 | 1061.47 | 1057.95 | 1054.74 | 1051.51
19990 kPa | 1078.82 | 1075.07 | 1071.57 | 1064.6 | 1061.14 | 1057.9 | 1054.8
25010 kPa | 1081.69 | 1078 | 1074.54 | 1067.62 | 1064.22 | 1061.01 | 1057.94
29990 kPa | 1084.45 | 1080.84 | 1077.42 | 1070.51 | 1067.21 | 1064.03 | 1060.97
35010 kPa | 1087.15 | 1083.56 | 1080.23 | 1073.32 | 1070.14 | 1066.99 | 1063.96
40000 kPa | 1089.79 | 1086.26 | 1082.95 | 1076.09 | 1072.99 | 1069.88 | 1066.84
45010 kPa | 1092.36 | 1088.87 | 1085.64 | 1078.77 | 1075.75 | 1072.64 | 1069.67
50000 kPa | 1094.88 | 1091.44 | 1088.25 | 1081.37 | 1078.47 | 1075.39 | 1072.43
55010 kPa | 1097.34 | 1093.95 | 1090.8 | 1084 | 1081.14 | 1078.08 | 1075.17
59990 kPa | 1099.74 | 1096.39 | 1093.3 | 1086.5 | 1083.74 | 1080.67 | 1077.73
65010 kPa | 1102.11 | 1098.81 | 1095.75 | 1088.91 | 1086.3 | 1083.24 | 1080.29

CC(=O)[O-].CCCCCCCCCCCCCC[P+](CCCCCC)(CCCCCC)CCCCCC [trihexyl(tetradecyl)phosphonium acetate]
mass density [kg/m3]
Conditions | 298.15 K | 303.15 K | 307.97 K | 313.07 K | 317.74 K | 323.96 K | 329.14 K | 334.11 K
210 kPa | 890.6 | 887.54 | 884.7 | 881.57 | 878.87 | 875.25 | 872.15 | 869.21
540 kPa | 890.77 | 887.71 | 884.86 | 881.77 | 879.06 | 875.43 | 872.35 | 869.41
1000 kPa | 891.01 | 887.96 | 885.13 | 882.02 | 879.32 | 875.7 | 872.61 | 869.67
3000 kPa | 892.04 | 889.03 | 886.22 | 883.14 | 880.46 | 876.87 | 873.78 | 870.81
5010 kPa | 893.09 | 890.08 | 887.29 | 884.26 | 881.6 | 878 | 874.92 | 871.98
7500 kPa | 894.35 | 891.38 | 888.6 | 885.61 | 882.99 | 879.4 | 876.33 | 873.42
9990 kPa | 895.56 | 892.64 | 889.9 | 886.96 | 884.32 | 880.77 | 877.71 | 874.78
15010 kPa | 897.96 | 895.15 | 892.45 | 889.57 | 886.95 | 883.42 | 880.41 | 877.5
19990 kPa | 900.29 | 897.52 | 894.88 | 892.06 | 889.47 | 885.99 | 883 | 880.11
25010 kPa | 902.57 | 899.86 | 897.23 | 894.49 | 891.91 | 888.48 | 885.53 | 882.67
29990 kPa | 904.74 | 902.08 | 899.51 | 896.77 | 894.26 | 890.86 | 887.95 | 885.12
35010 kPa | 906.9 | 904.28 | 901.72 | 899.05 | 896.54 | 893.19 | 890.32 | 887.57
40020 kPa | 908.99 | 906.41 | 903.88 | 901.21 | 898.76 | 895.47 | 892.64 | 889.93
45010 kPa | 911.02 | 908.45 | 905.95 | 903.32 | 900.88 | 897.65 | 894.88 | 892.22
49990 kPa | 912.98 | 910.44 | 907.95 | 905.38 | 902.96 | 899.78 | 897.06 | 894.45
55000 kPa | 914.91 | 912.4 | 909.92 | 907.36 | 904.98 | 901.85 | 899.19 | 896.66
59990 kPa | 916.81 | 914.31 | 911.84 | 909.27 | 906.93 | 903.86 | 901.27 | 898.81
65010 kPa | 918.66 | 916.16 | 913.69 | 911.16 | 908.84 | 905.84 | 903.3 | 900.91
